Starred links: 1 amine or outer side, 2 acyl side, 3 side chain; linkers in the order of their positions; H or OH if unused. Non-standard residues stand in square brackets, D forms with d. Residues, ends and D or L forms follow the SMILES beside them. Groups on a side chain read outwards from the residue. *: point of attachment. X1 = CCCCCCCCCCCCCCCC(=O)N[C@@H](CCC(=O)N[C@@H](CCC(=O)N[C@@H](CCC(=O)NCCCOCCOCCOCCCNC(=O)CCC(=O)NCCCOCCOCCOCCCNC(=O)CCC(=O)NCCCOCCOCCOCCCN*)C(=O)O)C(=O)O)C(=O)O; X9 = CCCCCCCCCCCCCCCC(=O)N[C@@H](CCC(=O)N[C@@H](CCC(=O)NCCCOCCOCCOCCCNC(=O)CCC(=O)NCCCOCCOCCOCCCN*)C(=O)O)C(=O)O; Trp(5-Cl) = N[C@@H](Cc1c[nH]c2ccc(Cl)cc12)C(=O)O; Suc = O=C(CCC(=O)[*:2])[*:1]; αMeK = C[C@](N)(CCCCN)C(=O)O; hLys = NCCCCC[C@H](N)C(=O)O; Aib = CC(C)(N)C(=O)O
Target: T1, RXFP1 (Homo sapiens, UniProt Q9HBX9)
T1 construct: OVCAR5 cells expressing endogenous RXFP1; endogenous in cells; host or cells: OVCAR5
T1 sequence (Q9HBX9 1-757): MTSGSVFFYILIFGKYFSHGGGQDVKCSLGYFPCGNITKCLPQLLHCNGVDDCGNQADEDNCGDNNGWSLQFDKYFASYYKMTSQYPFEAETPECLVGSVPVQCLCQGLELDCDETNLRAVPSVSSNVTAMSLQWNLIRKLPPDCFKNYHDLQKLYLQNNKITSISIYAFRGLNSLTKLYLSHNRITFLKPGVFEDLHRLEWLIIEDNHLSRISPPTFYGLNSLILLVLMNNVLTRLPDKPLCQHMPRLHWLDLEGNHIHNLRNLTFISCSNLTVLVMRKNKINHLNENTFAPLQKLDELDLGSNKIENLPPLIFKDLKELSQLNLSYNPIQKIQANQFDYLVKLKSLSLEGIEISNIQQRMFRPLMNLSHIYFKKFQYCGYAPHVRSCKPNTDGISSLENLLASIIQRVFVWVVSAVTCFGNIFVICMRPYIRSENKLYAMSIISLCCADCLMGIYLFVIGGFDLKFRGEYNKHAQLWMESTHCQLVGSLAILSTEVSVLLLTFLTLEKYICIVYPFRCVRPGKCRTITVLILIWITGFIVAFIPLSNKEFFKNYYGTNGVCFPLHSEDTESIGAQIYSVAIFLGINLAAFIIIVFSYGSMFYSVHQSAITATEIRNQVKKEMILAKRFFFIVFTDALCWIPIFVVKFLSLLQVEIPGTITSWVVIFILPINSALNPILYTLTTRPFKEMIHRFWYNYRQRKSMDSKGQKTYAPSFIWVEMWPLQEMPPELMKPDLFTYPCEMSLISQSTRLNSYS
Assay: OVCAR5 cAMP assay (HTRF)
Type: cell-based
Conditions: for EC50: OVCAR 5 cells expressing endogenous RXFP1, cAMP readout; for Emax: OVCAR 5 cells, maximal cAMP relative to H2-relaxin
Text: OVCAR5 cells expressing endogenous RXFP1 were used to test RXP1 agonist properties of peptides of the invention, and in particular of the peptides of sequence SEQ ID NO: 1-97.
Since RXFP1 is a Gs coupled GPCR, cAMP was used as readout of RXFP1 activation.
Isobutyl Methyl Xanthine (IBMX) was used to inhibit phosphodiesterase activity facilitating cAMP measurements. HTRF (Homogenous Time Resolved Fluorescence) technology was used to detect cAMP due to its great sensitivity.
In summary, OVCAR5 were grown in regular medium (RPMI) containing 10% fetal calf serum (FCS) and 1% antibiotics (penicillin/streptomycin).
Before the experiments, cells were detached with accutase and incubated for 40 minutes at 37° C. with 1 mM (3-isobutyl-1-methylxanthine) IBMX.
Cells were then distributed in 384 black well plates containing increasing concentrations of the different peptides in a fix volume of medium (without FCS).
After an incubation of 30 min at 37° C. in an humid incubator in 5% CO2, the reaction was stopped by adding a fixed volume of a solution containing a lysis buffer and cAMP-D2 (cAMP labeled with the dye d2) and the anti cAMP antibody linked to Europium and used for cAMP detection.
Readout of the experiment were performed on a fluorimeter allowing HTRF measurement. Activation curves were generated by plotting the intracellular value of cAMP versus log 10 of the compound concentration.
The 50% activation concentration (EC50) was calculated by nonlinear regression using the sigmoidal dose-response (variable slope) equation with Prism 5 software.
Emax % was determined as the maximal intracellular value of cAMP for test compound (upper limit of cAMP vs concentration curve) divided by the maximal intracellular value of cAMP for H2-relaxin determined in the same test occasion multiplied by 100. Emax %=100×[cAMPtest cpd]/[cAMPH2-Rlx]

Row | Compound | EC50 [nM] | Emax [%]
1 | CCCCCCCCCCCCCCCC(=O)N[C@@H](CCC(=O)N[C@@H](CCC(=O)N[C@@H](CCC(=O)NCCCOCCOCCOCCCNC(=O)CCC(=O)NCCCOCCOCCOCCCNC(=O)CCC(=O)NCCCOCCOCCOCCCNC(=O)CCC(=O)NCCCC[C@H](NC(=O)CNC(=O)[C@H](CCC(=O)O)NC(=O)C(C)(C)NC(=O)C(C)(C)NC(=O)[C@@H](NC(=O)[C@H](CCCCNC(C)=O)NC(=O)[C@H](C)NC(=O)[C@H](CCCNC(=N)N)NC(=O)[C@@H](NC(=O)[C@H](CCCCN)NC(=O)[C@H](CCC(=O)O)NC(=O)[C@H](CCCNC(=N)N)NC(=O)CNC(=O)[C@H](CCC(=O)O)NC(=O)[C@H](CC(C)C)NC(C)=O)C(C)C)[C@@H](C)CC)C(=O)N[C@@H](CO)C(=O)N[C@H](C(=O)N[C@@H](Cc1ccccc1)C(=O)NC(C)(C)C(=O)N[C@@H](CCCCN)C(=O)N[C@@H](CCCNC(=N)N)C(=O)N[C@@H](C)C(=O)N[C@@H](CCCCNC(C)=O)C(N)=O)[C@@H](C)O)C(=O)O)C(=O)O)C(=O)O [compound 15] (Ac-LEGREKVRAK(Ac)I[Aib][Aib]EGK([Suc-X1])STF[Aib]KRAK(Ac)-NH2) | 2.1 | 85
2 | CCCCCCCCCCCCCCCC(=O)N[C@@H](CCC(=O)N[C@@H](CCC(=O)N[C@@H](CCC(=O)NCCCOCCOCCOCCCNC(=O)CCC(=O)NCCCOCCOCCOCCCNC(=O)CCC(=O)NCCCOCCOCCOCCCNC(=O)CCC(=O)NCCCC[C@H](NC(=O)CNC(=O)[C@H](CCC(=O)O)NC(=O)C(C)(C)NC(=O)C(C)(C)NC(=O)[C@@H](NC(=O)[C@H](CCCCNC(C)=O)NC(=O)[C@H](C)NC(=O)[C@H](CCCNC(=N)N)NC(=O)[C@@H](NC(=O)[C@H](CCCCN)NC(=O)[C@H](CCC(=O)O)NC(=O)[C@H](CCCNC(=N)N)NC(=O)CNC(=O)[C@H](CCC(=O)O)NC(=O)[C@H](CCCCNC(C)=O)NC(C)=O)C(C)C)[C@@H](C)CC)C(=O)N[C@@H](CO)C(=O)N[C@H](C(=O)N[C@@H](Cc1ccccc1)C(=O)N[C@@H](CO)C(=O)N[C@@](C)(CCCCN)C(=O)N[C@@H](CCCNC(=N)N)C(=O)N[C@@H](C)C(=O)N[C@@H](CCCCNC(C)=O)C(N)=O)[C@@H](C)O)C(=O)O)C(=O)O)C(=O)O [compound 81] (Ac-K(Ac)EGREKVRAK(Ac)I[Aib][Aib]EGK([Suc-X1])STFS[αMeK]RAK(Ac)-NH2) | 0.16 | 98
3 | CCCCCCCCCCCCCCCC(=O)N[C@@H](CCC(=O)N[C@@H](CCC(=O)N[C@@H](CCC(=O)NCCCOCCOCCOCCCNC(=O)CCC(=O)NCCCOCCOCCOCCCNC(=O)CCC(=O)NCCCOCCOCCOCCCNC(=O)CCC(=O)NCCCC[C@H](NC(=O)CNC(=O)[C@H](CCC(=O)O)NC(=O)C(C)(C)NC(=O)C(C)(C)NC(=O)[C@@H](NC(=O)[C@H](CCCCNC(C)=O)NC(=O)[C@H](C)NC(=O)[C@H](CCCNC(=N)N)NC(=O)[C@@H](NC(=O)[C@H](CCCNC(=N)N)NC(=O)[C@H](CCC(=O)O)NC(=O)[C@H](CCCNC(=N)N)NC(=O)CNC(=O)[C@H](CCC(=O)O)NC(=O)[C@H](CC(C)C)NC(C)=O)C(C)C)[C@@H](C)CC)C(=O)N[C@@H](CO)C(=O)N[C@H](C(=O)N[C@@H](Cc1c[nH]c2ccc(Cl)cc12)C(=O)N[C@@H](CO)C(=O)NC(C)(C)C(=O)N[C@@H](CCCNC(=N)N)C(=O)N[C@@H](CCCNC(=N)N)C(=O)N[C@@H](CCCCNC(C)=O)C(N)=O)[C@@H](C)O)C(=O)O)C(=O)O)C(=O)O [compound 80] (Ac-LEGRERVRAK(Ac)I[Aib][Aib]EGK([Suc-X1])ST[Trp(5-Cl)]S[Aib]RRK(Ac)-NH2) | 0.63 | 93
4 | CCCCCCCCCCCCCCCC(=O)N[C@@H](CCC(=O)N[C@@H](CCC(=O)N[C@@H](CCC(=O)NCCCOCCOCCOCCCNC(=O)CCC(=O)NCCCOCCOCCOCCCNC(=O)CCC(=O)NCCCOCCOCCOCCCNC(=O)CCC(=O)NCCCC[C@H](NC(=O)CNC(=O)[C@H](CCC(=O)O)NC(=O)C(C)(C)NC(=O)C(C)(C)NC(=O)[C@@H](NC(=O)[C@H](CCCCNC(C)=O)NC(=O)[C@H](C)NC(=O)[C@H](CCCNC(=N)N)NC(=O)[C@@H](NC(=O)[C@H](CCCCCN)NC(=O)[C@H](CCC(=O)O)NC(=O)[C@H](CCCNC(=N)N)NC(=O)CNC(=O)[C@H](CCC(=O)O)NC(=O)[C@H](CC(C)C)NC(C)=O)C(C)C)[C@@H](C)CC)C(=O)N[C@@H](CO)C(=O)N[C@H](C(=O)N[C@@H](Cc1ccccc1)C(=O)N[C@@H](CO)C(=O)N[C@@](C)(CCCCN)C(=O)N[C@@H](CCCNC(=N)N)C(=O)N[C@@H](C)C(=O)N[C@@H](CCCCNC(C)=O)C(N)=O)[C@@H](C)O)C(=O)O)C(=O)O)C(=O)O [compound 28] (Ac-LEGRE[hLys]VRAK(Ac)I[Aib][Aib]EGK([Suc-X1])STFS[αMeK]RAK(Ac)-NH2) | 0.62 | 88
5 | CCCCCCCCCCCCCCCC(=O)N[C@@H](CCC(=O)N[C@@H](CCC(=O)NCCCOCCOCCOCCCNC(=O)CCC(=O)NCCCOCCOCCOCCCNC(=O)CCC(=O)NCCCC[C@H](NC(=O)CNC(=O)[C@H](CCC(=O)O)NC(=O)C(C)(C)NC(=O)C(C)(C)NC(=O)[C@@H](NC(=O)[C@H](CCCCNC(C)=O)NC(=O)[C@H](C)NC(=O)[C@H](CCCNC(=N)N)NC(=O)[C@@H](NC(=O)[C@H](CCCCN)NC(=O)[C@H](CCC(=O)O)NC(=O)[C@H](CCCNC(=N)N)NC(=O)CNC(=O)[C@H](CCC(=O)O)NC(=O)[C@H](CC(C)C)NC(C)=O)C(C)C)[C@@H](C)CC)C(=O)N[C@@H](CO)C(=O)N[C@H](C(=O)N[C@@H](Cc1ccccc1)C(=O)N[C@@H](CO)C(=O)N[C@@](C)(CCCCN)C(=O)N[C@@H](CCCNC(=N)N)C(=O)N[C@@H](C)C(=O)N[C@@H](CCCCNC(C)=O)C(N)=O)[C@@H](C)O)C(=O)O)C(=O)O [compound 9] (Ac-LEGREKVRAK(Ac)I[Aib][Aib]EGK([Suc-X9])STFS[αMeK]RAK(Ac)-NH2) | 0.7 | 93
6 | CCCCCCCCCCCCCCCC(=O)N[C@@H](CCC(=O)N[C@@H](CCC(=O)N[C@@H](CCC(=O)NCCCOCCOCCOCCCNC(=O)CCC(=O)NCCCOCCOCCOCCCNC(=O)CCC(=O)NCCCOCCOCCOCCCNC(=O)CCC(=O)NCCCC[C@H](NC(=O)CNC(=O)[C@H](CCC(=O)O)NC(=O)C(C)(C)NC(=O)C(C)(C)NC(=O)[C@@H](NC(=O)[C@H](CCC(N)=O)NC(=O)[C@H](C)NC(=O)[C@H](CCCNC(=N)N)NC(=O)[C@@H](NC(=O)[C@H](CCCCN)NC(=O)[C@H](CCC(=O)O)NC(=O)[C@H](CCCNC(=N)N)NC(=O)CNC(=O)[C@H](CCC(=O)O)NC(=O)[C@H](CC(C)C)NC(C)=O)C(C)C)[C@@H](C)CC)C(=O)N[C@@H](CO)C(=O)N[C@H](C(=O)N[C@@H](Cc1ccccc1)C(=O)N[C@@H](CO)C(=O)N[C@@](C)(CCCCN)C(=O)N[C@@H](CCCNC(=N)N)C(=O)N[C@@H](C)C(=O)N[C@@H](CCCCNC(C)=O)C(N)=O)[C@@H](C)O)C(=O)O)C(=O)O)C(=O)O [compound 48] (Ac-LEGREKVRAQI[Aib][Aib]EGK([Suc-X1])STFS[αMeK]RAK(Ac)-NH2) | 0.45 | 96
7 | CCCCCCCCCCCCCCCC(=O)N[C@@H](CCC(=O)N[C@@H](CCC(=O)N[C@@H](CCC(=O)NCCCOCCOCCOCCCNC(=O)CCC(=O)NCCCOCCOCCOCCCNC(=O)CCC(=O)NCCCOCCOCCOCCCNC(=O)CCC(=O)NCCCC[C@H](NC(=O)CNC(=O)[C@H](CCC(=O)O)NC(=O)C(C)(C)NC(=O)C(C)(C)NC(=O)[C@@H](NC(=O)[C@H](CCCCNC(C)=O)NC(=O)[C@H](C)NC(=O)[C@H](CCCNC(=N)N)NC(=O)[C@@H](NC(=O)[C@H](CCCCN)NC(=O)[C@H](CCC(=O)O)NC(=O)[C@H](CCCNC(=N)N)NC(=O)CNC(=O)[C@H](CCC(=O)O)NC(=O)[C@H](CC(C)C)NC(C)=O)C(C)C)[C@@H](C)CC)C(=O)N[C@@H](CO)C(=O)N[C@H](C(=O)N[C@@H](Cc1ccccc1)C(=O)N[C@H](CO)C(=O)N[C@@H](CCCCN)C(=O)N[C@@H](CCCNC(=N)N)C(=O)N[C@@H](C)C(=O)N[C@@H](CCCCNC(C)=O)C(N)=O)[C@@H](C)O)C(=O)O)C(=O)O)C(=O)O [compound 14] (Ac-LEGREKVRAK(Ac)I[Aib][Aib]EGK([Suc-X1])STF[dS]KRAK(Ac)-NH2) | 3.2 | 90
